Conditions: Liquid, expansion method

CO [methanol]
Conditions | isothermal compressibility
208.17 K, 390 kPa | 7.15e-07 1/kPa
208.17 K, 2110 kPa | 6.78e-07 1/kPa
208.17 K, 5020 kPa | 6.63e-07 1/kPa
208.17 K, 7970 kPa | 6.47e-07 1/kPa
208.17 K, 10910 kPa | 6.37e-07 1/kPa
208.17 K, 13880 kPa | 6.24e-07 1/kPa
208.17 K, 16980 kPa | 6.12e-07 1/kPa
208.17 K, 20090 kPa | 6.02e-07 1/kPa
208.17 K, 23230 kPa | 5.9e-07 1/kPa
208.17 K, 30160 kPa | 5.68e-07 1/kPa
208.17 K, 33540 kPa | 5.57e-07 1/kPa
208.17 K, 37190 kPa | 5.46e-07 1/kPa
208.17 K, 41120 kPa | 5.34e-07 1/kPa
208.17 K, 45130 kPa | 5.26e-07 1/kPa
208.17 K, 49210 kPa | 5.15e-07 1/kPa
208.17 K, 53370 kPa | 5.04e-07 1/kPa
208.17 K, 57610 kPa | 4.95e-07 1/kPa
208.17 K, 61920 kPa | 4.85e-07 1/kPa
208.17 K, 66300 kPa | 4.78e-07 1/kPa
208.17 K, 70740 kPa | 4.7e-07 1/kPa
208.17 K, 75250 kPa | 4.6e-07 1/kPa
208.17 K, 79850 kPa | 4.53e-07 1/kPa
208.17 K, 84300 kPa | 4.48e-07 1/kPa
208.17 K, 88600 kPa | 4.41e-07 1/kPa
208.17 K, 92960 kPa | 4.35e-07 1/kPa
208.17 K, 97910 kPa | 4.18e-07 1/kPa
223.17 K, 1060 kPa | 7.59e-07 1/kPa
223.17 K, 3160 kPa | 7.44e-07 1/kPa
223.17 K, 5540 kPa | 7.28e-07 1/kPa
223.17 K, 8010 kPa | 7.14e-07 1/kPa
223.17 K, 10640 kPa | 7.01e-07 1/kPa
223.17 K, 13500 kPa | 6.84e-07 1/kPa
223.17 K, 16660 kPa | 6.62e-07 1/kPa
223.17 K, 19820 kPa | 6.59e-07 1/kPa
223.17 K, 22850 kPa | 6.45e-07 1/kPa
223.17 K, 25930 kPa | 6.33e-07 1/kPa
223.17 K, 29040 kPa | 6.2e-07 1/kPa
223.17 K, 32210 kPa | 6.08e-07 1/kPa
223.17 K, 35450 kPa | 5.98e-07 1/kPa
223.17 K, 38770 kPa | 5.87e-07 1/kPa
223.17 K, 42230 kPa | 5.74e-07 1/kPa
223.17 K, 45780 kPa | 5.66e-07 1/kPa
223.17 K, 49400 kPa | 5.55e-07 1/kPa
223.17 K, 53080 kPa | 5.45e-07 1/kPa
223.17 K, 56960 kPa | 5.3e-07 1/kPa
223.17 K, 61040 kPa | 5.23e-07 1/kPa
223.17 K, 65060 kPa | 5.15e-07 1/kPa
223.17 K, 69050 kPa | 5.06e-07 1/kPa
223.17 K, 73000 kPa | 4.98e-07 1/kPa
223.17 K, 76980 kPa | 4.9e-07 1/kPa
223.17 K, 81110 kPa | 4.82e-07 1/kPa
223.17 K, 85330 kPa | 4.72e-07 1/kPa
223.17 K, 89630 kPa | 4.66e-07 1/kPa
223.17 K, 94200 kPa | 4.54e-07 1/kPa
223.17 K, 98850 kPa | 4.51e-07 1/kPa
248.19 K, 1680 kPa | 8.6e-07 1/kPa
248.19 K, 4590 kPa | 8.53e-07 1/kPa
248.19 K, 7250 kPa | 8.36e-07 1/kPa
248.19 K, 9880 kPa | 8.18e-07 1/kPa
248.19 K, 12580 kPa | 8.01e-07 1/kPa
248.19 K, 15470 kPa | 7.74e-07 1/kPa
248.19 K, 18450 kPa | 7.62e-07 1/kPa
248.19 K, 21360 kPa | 7.48e-07 1/kPa
248.19 K, 24330 kPa | 7.3e-07 1/kPa
248.19 K, 27310 kPa | 7.19e-07 1/kPa
248.19 K, 30180 kPa | 7.07e-07 1/kPa
248.19 K, 33000 kPa | 6.92e-07 1/kPa
248.19 K, 35670 kPa | 6.84e-07 1/kPa
248.19 K, 38600 kPa | 6.64e-07 1/kPa
248.19 K, 41780 kPa | 6.56e-07 1/kPa
248.19 K, 44760 kPa | 6.45e-07 1/kPa
248.19 K, 47880 kPa | 6.33e-07 1/kPa
248.19 K, 51230 kPa | 6.19e-07 1/kPa
248.19 K, 54640 kPa | 6.09e-07 1/kPa
248.19 K, 57930 kPa | 5.99e-07 1/kPa
248.19 K, 61270 kPa | 5.85e-07 1/kPa
248.19 K, 64800 kPa | 5.75e-07 1/kPa
248.19 K, 68310 kPa | 5.66e-07 1/kPa
248.19 K, 71740 kPa | 5.57e-07 1/kPa
248.19 K, 75070 kPa | 5.49e-07 1/kPa
248.19 K, 78410 kPa | 5.41e-07 1/kPa
248.19 K, 81890 kPa | 5.31e-07 1/kPa
248.19 K, 85380 kPa | 5.25e-07 1/kPa
248.19 K, 88990 kPa | 5.18e-07 1/kPa
248.19 K, 92540 kPa | 5.18e-07 1/kPa
248.19 K, 96400 kPa | 5e-07 1/kPa
248.19 K, 100840 kPa | 4.9e-07 1/kPa
263.17 K, 1420 kPa | 9.64e-07 1/kPa
263.17 K, 3920 kPa | 9.42e-07 1/kPa
263.17 K, 6360 kPa | 9.2e-07 1/kPa
263.17 K, 8840 kPa | 9.02e-07 1/kPa
263.17 K, 11360 kPa | 8.82e-07 1/kPa
263.17 K, 13920 kPa | 8.62e-07 1/kPa
263.17 K, 16580 kPa | 8.42e-07 1/kPa
263.17 K, 19270 kPa | 8.26e-07 1/kPa
263.17 K, 22000 kPa | 8.07e-07 1/kPa
263.17 K, 24860 kPa | 7.88e-07 1/kPa
263.17 K, 27740 kPa | 7.73e-07 1/kPa
263.17 K, 30600 kPa | 7.56e-07 1/kPa
263.17 K, 33550 kPa | 7.41e-07 1/kPa
263.17 K, 36560 kPa | 7.26e-07 1/kPa
263.17 K, 39590 kPa | 7.11e-07 1/kPa
263.17 K, 42670 kPa | 6.97e-07 1/kPa
263.17 K, 45790 kPa | 6.84e-07 1/kPa
263.17 K, 48960 kPa | 6.72e-07 1/kPa
263.17 K, 52170 kPa | 6.58e-07 1/kPa
263.17 K, 55430 kPa | 6.46e-07 1/kPa
263.17 K, 58830 kPa | 6.32e-07 1/kPa
263.17 K, 62280 kPa | 6.21e-07 1/kPa
263.17 K, 65720 kPa | 6.12e-07 1/kPa
263.17 K, 69340 kPa | 5.97e-07 1/kPa
263.17 K, 73030 kPa | 5.88e-07 1/kPa
263.17 K, 76640 kPa | 5.78e-07 1/kPa
263.17 K, 80310 kPa | 5.68e-07 1/kPa
263.17 K, 84120 kPa | 5.57e-07 1/kPa
263.17 K, 88070 kPa | 5.47e-07 1/kPa
263.17 K, 92050 kPa | 5.52e-07 1/kPa
263.17 K, 95980 kPa | 5.33e-07 1/kPa
263.17 K, 100060 kPa | 5.22e-07 1/kPa
273.17 K, 1010 kPa | 1.05e-06 1/kPa
273.17 K, 3000 kPa | 1.02e-06 1/kPa
273.17 K, 5050 kPa | 1e-06 1/kPa
273.17 K, 7100 kPa | 9.82e-07 1/kPa
273.17 K, 9170 kPa | 9.62e-07 1/kPa
273.17 K, 11220 kPa | 9.47e-07 1/kPa
273.17 K, 13320 kPa | 9.25e-07 1/kPa
273.17 K, 15430 kPa | 9.12e-07 1/kPa
273.17 K, 17510 kPa | 8.9e-07 1/kPa
273.17 K, 19750 kPa | 8.72e-07 1/kPa
273.17 K, 22140 kPa | 8.56e-07 1/kPa
273.17 K, 24880 kPa | 8.26e-07 1/kPa
273.17 K, 27900 kPa | 8.1e-07 1/kPa
273.17 K, 30870 kPa | 7.91e-07 1/kPa
273.17 K, 38720 kPa | 7.29e-07 1/kPa
273.17 K, 42290 kPa | 7.21e-07 1/kPa
273.17 K, 45710 kPa | 7.11e-07 1/kPa
273.17 K, 49180 kPa | 6.92e-07 1/kPa
273.17 K, 52690 kPa | 6.79e-07 1/kPa
273.17 K, 55980 kPa | 6.73e-07 1/kPa
273.17 K, 59210 kPa | 6.57e-07 1/kPa
273.17 K, 62510 kPa | 6.46e-07 1/kPa
273.17 K, 65790 kPa | 6.35e-07 1/kPa
273.17 K, 69160 kPa | 6.24e-07 1/kPa
273.17 K, 72680 kPa | 6.19e-07 1/kPa
273.17 K, 76170 kPa | 6.02e-07 1/kPa
273.17 K, 79630 kPa | 5.9e-07 1/kPa
273.17 K, 83150 kPa | 5.82e-07 1/kPa
273.17 K, 86550 kPa | 5.73e-07 1/kPa
273.17 K, 90030 kPa | 5.63e-07 1/kPa
273.17 K, 94000 kPa | 5.47e-07 1/kPa
273.17 K, 98210 kPa | 5.44e-07 1/kPa
298.16 K, 740 kPa | 1.27e-06 1/kPa
298.16 K, 2360 kPa | 1.22e-06 1/kPa
298.16 K, 4230 kPa | 1.19e-06 1/kPa
298.16 K, 6090 kPa | 1.17e-06 1/kPa
298.16 K, 7970 kPa | 1.14e-06 1/kPa
298.16 K, 9920 kPa | 1.12e-06 1/kPa
298.16 K, 11950 kPa | 1.09e-06 1/kPa
298.16 K, 14020 kPa | 1.06e-06 1/kPa
298.16 K, 16080 kPa | 1.04e-06 1/kPa
298.16 K, 18190 kPa | 1.02e-06 1/kPa
298.16 K, 20320 kPa | 1e-06 1/kPa
298.16 K, 22490 kPa | 9.82e-07 1/kPa
298.16 K, 24710 kPa | 9.59e-07 1/kPa
298.16 K, 26990 kPa | 9.37e-07 1/kPa
298.16 K, 29290 kPa | 9.23e-07 1/kPa
298.16 K, 31700 kPa | 8.99e-07 1/kPa
298.16 K, 34090 kPa | 8.85e-07 1/kPa
298.16 K, 36550 kPa | 8.65e-07 1/kPa
298.16 K, 39120 kPa | 8.47e-07 1/kPa
298.16 K, 41740 kPa | 8.3e-07 1/kPa
298.16 K, 44450 kPa | 8.14e-07 1/kPa
298.16 K, 47180 kPa | 7.96e-07 1/kPa
298.16 K, 49870 kPa | 7.83e-07 1/kPa
298.16 K, 52590 kPa | 7.68e-07 1/kPa
298.16 K, 55320 kPa | 7.57e-07 1/kPa
298.16 K, 58040 kPa | 7.43e-07 1/kPa
298.16 K, 60870 kPa | 7.28e-07 1/kPa
298.16 K, 63900 kPa | 7.14e-07 1/kPa
298.16 K, 66990 kPa | 7.03e-07 1/kPa
298.16 K, 69960 kPa | 6.89e-07 1/kPa
298.16 K, 73410 kPa | 6.65e-07 1/kPa
298.16 K, 77320 kPa | 6.55e-07 1/kPa
298.16 K, 80990 kPa | 6.49e-07 1/kPa
298.16 K, 84450 kPa | 6.37e-07 1/kPa
298.16 K, 87890 kPa | 6.41e-07 1/kPa
298.16 K, 91290 kPa | 6.17e-07 1/kPa
298.16 K, 94830 kPa | 6.05e-07 1/kPa
298.16 K, 98440 kPa | 6.02e-07 1/kPa

From the NIST ThermoML archive (doi:10.1021/je060415l)
